“Also recorded” adds a separate entry of the source.
How the values were obtained:
[1] = system: polyQ-Htt-induced inhibition of fast axonal transport; test: Vesicle motility assay in isolated squid axoplasm, co-perfusion with polyQ-Htt; type: cell-based, squid Loligo pealeii; details: co-perfused with polyQ-Htt, concentration not given
From the text: (§1) Genes encoding human wild-type Huntingtin (Htt) (i.e., Q20, residues 1-548; Szebenyi, et al. (2003) supra) and polyQ-expanded Htt (i.e., Q46, residues 1-949; Qin, et al. (2004) J. Neurosci. 24(1):269-81) were cloned into the pcDNA.3 vector and produced by in vitro transcription/translation as described for the androgen receptor. Alternatively, shorter constructs (Htt exon1) were expressed in E. coli as GST-tagged proteins.
(§2) Squid Axoplasm. Isolated squid axoplasm represents a unique experimental system to evaluate axonal-specific effects and pathogenic mechanisms. This model was instrumental in the original discovery of kinesin-1 (Brady (1985) Nature 317:73-75, novel pathways for fast axonal transport (Morfini, et al. (2002) supra; Morfini, et al. (2004) supra), and axonal-specific phosphorylation events (Grant & Pant (2000) J. Neurocytol. 29:843-72). Bidirectional membrane-bound organelle movements are observed with properties unchanged from intact axons for hours after removal of plasma membrane (Brady, et al. (1982) Science 218:1129-1131). Video-enhanced microscopic techniques allow quantitative analysis of membrane-bound organelle movement in fast axonal transport. […]
Motility Studies in Isolated Axoplasm. […] Preparations were analyzed on a ZEISS AXIOMAT with a 100×, 1.3 n.a. objective, and DIC optics. […]

[2] = system: polyQ-AR-induced inhibition of fast axonal transport; test: Vesicle motility assay in isolated squid axoplasm, co-perfusion with polyQ-AR; type: cell-based, squid Loligo pealeii
Protocol: (§3) Recombinant Polypeptides. Wild-type androgen receptor and polyQ-AR polypeptides were produced by in vitro transcription/translation (TNT T7-Coupled Reticulocyte Lysate System; Promega, Madison, Wis.) according to manufacturer's protocols. Typically, 1.8 μg of plasmid was transcribed in 50 μl reaction mix. To assess protein levels, parallel reactions were performed incorporating ^35S-labeled methionine (Amersham) or quantitative immunoblots were performed. Protein concentrations were typically 0.2-0.5 nM. In vitro translated androgen receptor has been characterized and shown to be functional (Kuiper, et al. (1993) Biochem. J. 296(Pt 1):161-7). In vitro translation products were briefly centrifuged to eliminate translation machinery, and supernatants frozen in liquid N2 until used.
as §2, with “transport. Typical kinesin-dependent transport rates are 1.5-2.0 μm/s, whereas retrograde, cytoplasmic dynein-dependent rates are 1-1.3 μm/s in perfused axoplasms. These rates are maintained with little (<10%) or no reduction for >1 hour after perfusion with control buffer (Brady, et al. (1982) supra).” for “transport.”
(§4) Motility Studies in Isolated Axoplasm. […] Preparations were analyzed on a ZEISS AXIOMAT with a 100×, 1.3 n.a. objective, and DIC optics. […] Organelle velocities were measured with a Photonics Microscopy C2117 video manipulator (Hamamatsu).

[3] = system: 902-6 SH-SY5Y cells (polyQ-AR); test: Neurite outgrowth of differentiated SH-SY5Y cells expressing polyQ-AR; type: cell-based, human
Protocol: (§5) SH-SY5Y Cell Culture and Pharmacological Inhibition. Androgen receptor constructs containing wild-type androgen receptor (Q20) and pathogenic androgen receptor (Q56) tracts were prepared and stably transfected into SH-SY5Y human neuroblastoma cells (Avila, et al. (2003) Exp. Biol. Med. (Maywood) 228:982-90). Wild-type and 902-6 cells (expressing both full-length polyQ-AR and a truncated N-terminal androgen receptor fragment (≈25 kD) that accumulated in cytoplasm) were grown and differentiated (Szebenyi, et al. (2003) supra). Cells were plated at densities of 10,000 cells/cm^2 on 10-cm tissue culture dishes for biochemical studies, and at 3000-5000 cells/cm^2 on 4-well tissue-tech chamber slides (Becton-Dickinson, Mountain View, Calif.) for immunocytochemistry and morphometric studies. For inhibitor studies, cells were differentiated with 10 μM retinoic acid in serum for 5-6 days, and then switched to serum-free medium supplemented with 25 ng/ml BDNF (Alomone Laboratories, Jerusalem, Israel) with or without SB203580 inhibitor. Cell morphologies were evaluated after 3 days in BDNF±SB203580 (Szebenyi, et al. (2003) supra).

[4] = system: wild-type androgen receptor SH-SY5Y cells; test: Neurite outgrowth of differentiated SH-SY5Y cells expressing wild-type androgen receptor; type: cell-based, human; details: 10 μM
Protocol: as §5

[5] = system: p38α, p38β, JNK2, and JNK3; details: cited from earlier work
fast axonal transport [6] = details: cited from earlier work
[7] = system: neurofilament phosphorylation; test: Neurofilament phosphorylation in squid axoplasm (immunoblot, SMI32); type: cell-based; details: axoplasm incubated with protein
Protocol: Phosphorylation Studies in Squid Axoplasm. Three to four axoplasms were triturated in KB buffer (KB: 10 mM HEPES pH 7.4, 10 mM MgCl2, 1 mM DTT) and aliquoted. Individual reactions with corresponding in vitro-translated androgen receptor constructs were started by adding radiolabeled ATP to 100 μM. Reactions were done in 50 μl, incubated for 20 minutes at room temperature and stopped with 50 μl of 2× sample buffer. Lysates were separated by SDS-PAGE and analyzed by autoradiography. For certain indicated assays, 2 axoplasms per tube were incubated in X/2 buffer for 50 minutes with corresponding in vitro-translated androgen receptor construct, then 50 μl of 2× sample buffer was added and samples analyzed by immunoblot.

fast axonal transport [8] = test: Vesicle motility assay in isolated squid axoplasm, perfusion of recombinant protein alone; type: cell-based, squid Loligo pealeii; details: protein alone
Protocol: as §3, §1
as §2, with “transport. Typical kinesin-dependent transport rates are 1.5-2.0 μm/s, whereas retrograde, cytoplasmic dynein-dependent rates are 1-1.3 μm/s in perfused axoplasms. These rates are maintained with little (<10%) or no reduction for >1 hour after perfusion with control buffer (Brady, et al. (1982) supra). The lack of permeability barriers allows perfusion of the axoplasm with a variety of effector molecules at known concentrations. Effectors of interest include nucleotides, pharmacological inhibitors, recombinant polypeptides, and antibodies.” for “transport.”
as §4

kinesin-1 = test: Kinesin-1 ATPase assay; type: biochemical, rat; details: in vitro, up to equimolar levels of androgen receptor and kinesin-1
Protocol: Kinesin-1 ATPase Assays. Kinesin-1 basal and microtubule-activated ATPase activity was assayed according to known methods (Morfini, et al. (2002) supra; Tsai, et al. (2000) Mol. Biol. Cell 11:2161-2173). Briefly, purified rat brain kinesin and in vitro-translated androgen receptor constructs were incubated with or without TAXOL-stabilized MAP-free microtubules (1 mg/ml). Assays were started by addition of 1 mCi γ-^32P ATP (ICN Biochemicals, Costa Mesa, Calif.) and incubated for 25 minutes at 37° C. Reactions were stopped with 10% SDS and aliquots spotted on PEI-cellulose plates. Chromatograms were developed in 0.5 M LiCl/1 M formic acid and spots for ^32P and γ-^32P ATP counted to obtain percent of total ^32P recovered as free phosphate.

[9] = co-perfused with polyQ-AR, concentration not given

Compound | effect on polyQ-Htt-induced inhibition of fast axonal transport [1] | effect on polyQ-AR-induced inhibition of fast axonal transport [2, 9] | mean fast axonal transport rate (fast axonal transport [8]; 20-30 minutes) | mean fast axonal transport rate (fast axonal transport [8]; 40-50 minutes) | effect on basal and microtubule-activated ATPase activity of kinesin-1 (kinesin-1) | also measured
CCSCc1ccc2c(c1)c1c3c(c4c5cc(CSCC)ccc5n5c4c1n2[C@H]1C[C@](O)(C(=O)OC)[C@]5(C)O1)CNC3=O [CEP-1347] | prevented the effects of polyQ-Htt and polyQ-AR on fast axonal transport | prevented the effects of polyQ-Htt and polyQ-AR on fast axonal transport |  |  |  | 
C[S+]([O-])c1ccc(-c2nc(-c3ccncc3)c(-c3ccc(F)cc3)[nH]2)cc1 (stereo not shown) [SB203580] | prevented the effects of polyQ-Htt on fast axonal transport |  |  |  |  | proportion of cells with long neurites (>80 μm in length) ([3]; 10 μM or 20 μM): dramatic and dose-dependent increase in the proportion of cells that extended long neurites; also recorded: significant increase in the number of polyQ-AR cells extending long neurites; neurite length / outgrowth ([3]; 10 μM, 3 days BDNF): increasing neurite outgrowth; also recorded: increased in length; neurite length / morphology distribution ([3]; 20 μM, 3 days BDNF): nearly indistinguishable between wild-type and 902-6 cells; also recorded: indistinguishable from untreated wild-type androgen receptor cells; effect on inhibition of neurite outgrowth by polyQ-AR ([3]; added to culture media, 3 days BDNF): overcame inhibition of neurite outgrowth by polyQ-AR; also recorded: reverses inhibition of neurite formation by polyQ-AR; neurite outgrowth [4]: increasing neurite outgrowth; kinases inhibited [5]: inhibits p38α, p38β, JNK2, and JNK3; effect on polyQ-AR-induced inhibition of fast axonal transport ([2]; 10 μM co-perfused with polyQ-AR): completely blocked the inhibition of fast axonal transport in both anterograde and retrograde directions
C=C1[C@@H](O)[C@@H]2O[C@]3(CC[C@H](/C=C/[C@@H](C)[C@@H]4CC(C)=C[C@@]5(O[C@H](C[C@@](C)(O)C(=O)O)CC[C@H]5O)O4)O3)CC[C@H]2O[C@@H]1[C@@H](O)C[C@H](C)[C@H]1O[C@@]2(CCCCO2)CC[C@H]1C [okadaic acid] |  | failed to prevent polyQ-AR-induced fast axonal transport inhibition |  |  |  | 
polyQ-AR: polyglutamine-expanded androgen receptor (Q56) produced by in vitro transcription/translation |  |  | 1.25±0.03 μm/sec | 1.08±0.02 μm/sec | failed to affect either basal or microtubule-activated ATPase activity of kinesin-1 | level that inhibits fast axonal transport (fast axonal transport [6]): < 1 nM; SMI32 immunoreactivity [7]: reduced
wild-type androgen receptor: wild-type androgen receptor (Q20) produced by in vitro transcription/translation |  |  | 1.71±0.03 μm/sec | 1.77±0.04 μm/sec | not affected | 

Source: US20090252717A1, “Compositions and Methods for Treating Polyglutamine-Expansion Neurodegenerative Diseases” (priority 2006, published 2009)
